Source: patent US20250346584A1, “NOVEL KAPPA OPIOID LIGANDS” (The Scripps Research Institute, priority 2012, published 2025)

Molecular target: kappa opioid receptor (OPRK1) (Homo sapiens (Human), UniProt P41145)
Test: OPRK1 antagonist assay (b-arrestin-2-TEV / b-lactamase reporter cell line, EC80 U-50488 challenge)
Format: cell-based
Details: read-out: IC50 nM (% inhib if other than 50%); antagonist mode vs EC80 U-50488; NA = not active at concentrations up to 10 μM

Chain of kappa opioid receptor (OPRK1) (P41145 whole entry): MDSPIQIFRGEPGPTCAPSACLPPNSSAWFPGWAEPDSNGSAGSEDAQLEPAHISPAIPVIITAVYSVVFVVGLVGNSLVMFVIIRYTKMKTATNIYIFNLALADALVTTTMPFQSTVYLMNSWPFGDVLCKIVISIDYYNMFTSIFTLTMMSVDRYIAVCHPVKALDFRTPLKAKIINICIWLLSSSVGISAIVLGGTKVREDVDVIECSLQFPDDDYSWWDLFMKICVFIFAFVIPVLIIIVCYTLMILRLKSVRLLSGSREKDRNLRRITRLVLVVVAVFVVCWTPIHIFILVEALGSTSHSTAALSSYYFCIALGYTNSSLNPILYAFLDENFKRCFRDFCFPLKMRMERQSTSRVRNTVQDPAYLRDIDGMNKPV

Row | SMILES | IC50 [nM]
1 | Cc1nc(-c2cc3cc(F)ccc3nc2N2CCC(N[C@H]3CCC[C@@H]3O)CC2)no1 [compound 474] | 1900
2 | Cc1cnc(N2CCC(NC3CCCCC3)CC2)c(-c2ccncn2)c1 [compound 517] | 1140
3 | CCc1noc(-c2cc3cc(C)ccc3nc2N2CCC(NC3CCOCC3)CC2)n1 [compound 290] | 47
4 | Cc1noc(-c2cc3cc(F)ccc3nc2N2CCC(NC3CCOCC3)CC2)n1 [compound 476] | 430
5 | CCc1noc(-c2cc(Br)cnc2N2CCC(NC3CCCCC3)CC2)n1 [compound 107] | 11000
6 | COC(=O)c1cc(F)cnc1N1CCC(NC2CCCCC2)CC1 [compound 72] | 6600
7 | O[C@@H]1CN(c2ncc(Br)cc2-c2nc(C3CC3)no2)CC[C@H]1NC1CCCCC1 [compound 150] | 9100
8 | COC1CN(c2ncc(C)cc2-c2cn(C)nn2)CCC1NC1CCCCC1 (stereo not drawn) [compound 392] | 2960
9 | COC(=O)c1cc(Br)cnc1N1CC(O)C(NC2CCCCC2)C(O)C1 (stereo not drawn) [compound 62] | 2700
10 | COC(=O)c1cc(I)cnc1N1CCC(NC2CCCCC2C)C(CO)C1 (stereo not drawn) [compound 89] | 116
11 | COC1CN(c2ncc(Br)cc2C(C)=O)CCC1NC1CCCCC1 (stereo not drawn) [C61] | 10000
12 | COC(=O)c1cc(Br)cnc1N1CCC(NC2CCCCC2CO)CC1 (stereo not drawn) [compound 65] | 2300
13 | COC(=O)c1cc(Br)cnc1N1CCC(N[C@H](C)C2CCCCC2)CC1 [compound 17] | 6800
14 | COC(=O)c1cc(Cl)cnc1N1CC[C@H](NC2CCCCC2)[C@@H](O)C1 [compound 111] | 281
15 | Cc1cnc(N2CCC(NC3CCCCC3)C(CO)C2)c(-c2ncccn2)c1 (stereo not drawn) [compound 245] | 79
16 | CO[C@H]1CN(c2nc3ccc(C)cc3cc2-c2nc(C)no2)CC[C@H]1NCC(C)C [compound 529] | 369
17 | COC(=O)c1cc(C)c(C)nc1N1CCC(NC2CCCCC2)C(OC)C1 (stereo not drawn) [compound 163] | 915
18 | COC1CN(c2ncc(C(F)(F)F)cc2-c2nc(C)no2)CCC1NC1CCCCC1 (stereo not drawn) [compound 174] | 180
19 | COC1CN(c2nc3ccccc3cc2-c2ncco2)CCC1NC1CCCCC1 (stereo not drawn) [compound 225] | 70
20 | CCc1noc(-c2cc(C)cnc2N2CCC(NC3CCCCC3)C(CO)C2)n1 (stereo not drawn) [compound 171] | 1100

Row | SMILES | IC50 [nM]
21 | COC1CCCCC1NC1CCN(c2ncc(C)cc2-c2nc(C)no2)CC1CO (stereo not drawn) [compound 196] | 414
22 | Cc1noc(-c2cc3ccc(F)c(C)c3nc2N2CCC(NCC(C)C)CC2)n1 [compound 494] | 64
23 | COC1CN(c2nc3ccc(C)cc3cc2-c2noc(C)n2)CCC1NCC(C)C (stereo not drawn) [compound 377] | 69
24 | COC(=O)c1cc(Br)cnc1N1CCC(NC2CCCCC2)C(C(=O)OC)C1 (stereo not drawn) [compound 113] | 2000
25 | COC(=O)c1cc(Br)cnc1N1CCC(N[C@@H]2CCCCC[C@H]2O)CC1 [compound 27] | 473
26 | CC(=O)c1cc2cc(C)ccc2nc1N1CCC(NC2CCOCC2)CC1 [compound 478] | 900
27 | COC(=O)c1cc(Br)cnc1N1CCC(O)C(NC2CCCCC2)C1 (stereo not drawn) [compound 47] | 2800
28 | CCOC(=O)c1cc(Br)cnc1N1CCC(NC2CCCC[C@@H]2O)CC1 (stereo partly drawn) [compound 8] | 579
29 | CO[C@@H]1CN(c2nc3ccc(C)cc3cc2-c2noc(C)n2)CC[C@@H]1NC1CCCCC1 [compound 382] | 83
30 | Cc1ccc2nc(N3CCC(NC4CCOCC4)CC3)c(-c3nc(C)no3)nc2c1 [compound 518] | 410
31 | Cc1ccc2nc(N3CCC(NC4CCCCC4)CC3)c(-c3ccncn3)cc2c1 [compound 532] | 334
32 | Cc1cnc(N2CC[C@@H](NC3CCCCC3)[C@H](O)C2)c(-c2ncco2)c1 [compound 169] | 2500
33 | O[C@@H]1CN(c2nc3ccccc3cc2-c2ncco2)CC[C@H]1NC1CCCCC1 [compound 218] | 475
34 | COC(=O)c1cc(Cl)cnc1N1CCC(NC2CCCCC2)C(CO)C1 (stereo not drawn) [compound 70] | 110
35 | COC(=O)c1cc(Br)cnc1N1CCC(NC2CCCCCC2)C(O)C1 (stereo not drawn) [compound 60] | 68
36 | COC(=O)c1cc(Br)cnc1N1CCC(NC2CCOCC2)C(CO)C1 (stereo not drawn) [compound 81] | 126
37 | COC(=O)c1cc(Br)cnc1N1CCC(NC2CCCCC2OC)CC1 (stereo not drawn) [compound 26] | 267
38 | Cc1noc(-c2cc3ccccc3nc2N2CC(NC3CCCCC3)C2)n1 [compound 234] | 596
39 | OCc1cc(Br)cnc1N1CCC(NC2CCCCC2)CC1 [compound 76] | 11300

Stronger by IC50, values ahead:

Row | IC50 [nM] | SMILES
40 | 45 | Cc1noc(-c2cc3ccc(Cl)cc3nc2N2CCC(NCC(C)C)CC2)n1 [compound 541]
41 | 41 | Cc1noc(-c2cc3cc(C)c(C)cc3nc2N2CCC(NC3CCCCC3)C(CO)C2)n1 (stereo not drawn) [compound 307]
42 | 40 | CO[C@H]1CN(c2nc3ccccc3cc2-c2cnc(C)cn2)CC[C@H]1NC1CCCCC1 [compound 470]
43 | 38 | Cc1noc(-c2cc3cc(Cl)ccc3nc2N2CC[C@@H](NC3CCCCC3)[C@H](O)C2)n1 [compound 238]
44 | 26 | Cc1ccc2nc(N3CCC(NC4CCC(F)(F)CC4)CC3)c(-c3noc(C)n3)cc2c1 [compound 436]
45 | 25 | COC(=O)c1cc(I)cnc1N1CCC(NC2CCCC2)C(O)C1 (stereo not drawn) [compound 46]
46 | 22 | Cc1noc(-c2cc3cc(F)ccc3nc2N2CCC(NC3CCCCC3)C(CO)C2)n1 (stereo not drawn) [compound 243]
47 | 21 | Cc1ccc2nc(N3CCC(NC(C)C4CCCCC4)CC3)c(-c3nc(C)no3)cc2c1 (stereo not drawn) [compound 349]
48 | 20 | COC1CN(c2nc3ccc(C)cc3cc2-c2nc(C)no2)CCC1NC1CCCCC1 (stereo not drawn) [compound 293]
49 | 19 | Cc1ccc2nc(N3CCC(NC4CCOCC4)CC3)c(-c3noc(C)n3)cc2c1 [compound 332]
50 | 18 | Cc1noc(-c2cc3ccccc3nc2N2CCC(NC3CCCCC3)CC2)n1 [compound 209]
51 | 18 | COC(=O)c1cc(I)cnc1N1CCC(NC2CCCCC2)C(O)C1 (stereo not drawn) [compound 42]
52 | 12 | COC1CN(c2nc3ccc(C)cc3cc2-c2nc(C)no2)CCC1NCC(C)C (stereo not drawn) [compound 375]
53 | 11 | Cc1noc(-c2cc3c(F)cccc3nc2N2CC[C@@H](NC3CCCCC3)[C@H](O)C2)n1 [compound 251]
54 | 11 | COC(=O)c1cc(I)cnc1N1CCC(NC2CCCCC2)C(CO)C1 (stereo not drawn) [compound 77]
55 | 11 | Cc1ccc2nc(N3CCC(NC4CCCCC4O)CC3)c(-c3noc(C)n3)cc2c1 (stereo not drawn) [compound 450]
56 | 9 | Cc1noc(-c2cc3cccc(C)c3nc2N2CCC(NC3CCCCC3)C(CO)C2)n1 (stereo not drawn) [compound 277]
57 | 8 | CCC(CC)NC1CCN(c2nc3ccccc3cc2-c2nc(C)no2)CC1 [compound 237]
58 | 5.6 | CCc1noc(-c2cc3cc(C)ccc3nc2N2CCC(NC3CCOCC3)C(OC)C2)n1 (stereo not drawn) [compound 327]
59 | 3.5 | Cc1ccc2nc(N3CCC(NC4CCCCC4)CC3)c(-c3nc(C)no3)cc2c1 [compound 219]
60 | 1 | COC1CN(c2nc3ccccc3cc2-c2nc(C)no2)CCC1NC1CCCCCC1 (stereo not drawn) [compound 311]
61 | 0.97 | Cc1ccc2nc(N3CCC(NC4CCC(C)CC4)CC3)c(-c3nc(C)no3)cc2c1 (stereo not drawn) [compound 350]
62 | 0.7 | CO[C@H]1CN(c2nc3ccc(C)cc3cc2-c2nc(C)no2)CC[C@H]1NC1CCCCC1 [compound 294]
63 | 0.7 | COC1CN(c2nc3ccc(C)cc3cc2-c2nc(C)no2)CCC1NC1CCCCCC1 (stereo not drawn) [compound 312]
